These results are taken from BindingDB's records for patent US12565497 (Hoffmann-La Roche, 2026).

Molecules are shown by their SMILES. Bounds are passed on as bounds.

Chain of S-adenosylmethionine synthase isoform type-2 (P31153 whole entry, canonical isoform): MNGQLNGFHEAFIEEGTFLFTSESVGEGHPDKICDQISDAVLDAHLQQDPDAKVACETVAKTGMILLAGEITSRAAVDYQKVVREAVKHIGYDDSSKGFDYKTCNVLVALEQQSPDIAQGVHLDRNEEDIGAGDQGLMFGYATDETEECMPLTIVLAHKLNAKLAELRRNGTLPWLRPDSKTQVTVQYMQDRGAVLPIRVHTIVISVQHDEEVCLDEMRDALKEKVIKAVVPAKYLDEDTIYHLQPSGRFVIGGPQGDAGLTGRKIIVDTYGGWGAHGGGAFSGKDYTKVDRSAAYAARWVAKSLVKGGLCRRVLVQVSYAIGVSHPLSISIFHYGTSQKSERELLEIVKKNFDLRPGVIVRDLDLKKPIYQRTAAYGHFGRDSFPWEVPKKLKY

For the assay, the target named is S-adenosylmethionine synthase isoform type-2 (Homo sapiens, UniProt P31153). Description: Determination of Mat2A Activity. As to the method:
Measurement of Mat2A inhibition is performed in 384 well format absorbance-based assay. Recombinant human Mat2a (12.5 nM) and serial diluted compounds in DMSO (range of concentrations from 10 μM to 508 pM) or controls (DMSO) are incubated for 15 minutes at room temperature (RT) in assay buffer containing 50 mM HEPES pH 7.5, 50 mM KCl, 50 mM MgCl2, 0.01%Tween 20 and 10 mM DTT. The reaction is initiated by the addition of the combined substrates ATP and Methionine, each at a final concentration of 100 μM. Final assay condition are 12.5 nM Mat2A, 100 μM ATP and Methionine Substrates and 2% DMSO. After 120 minutes of incubation at RT, the reaction is stopped by the addition of Biomol Green. The absorbance signal is measured at λ=635 nm with a multiplate reader (BMG Pherastar reader or equivalent) after 30 min of equilibration at RT.
Usually IC50 stands for the point on the concentration scale where inhibition reaches its midpoint. On to `CCS(=O)(=O)c1ccc(-c2nccc3[nH]nc(C4CC4)c23)cc1C` [US12565497, Example 20], for which the IC50 amounted to 15 nM.

Turning to `Cc1cc(-c2c(S(C)(=O)=O)ccc3[nH]nc(OC(F)F)c23)ccc1S(C)(=O)=O` [US12565497, Example 49], the IC50 was under 13 nM.

Turning to `Cc1cc(-c2c(C(=O)NC3COC3)ncc3[nH]nc(C4CC4)c23)ccc1S(C)(=O)=O` [US12565497, Example 84], the IC50 is under 13 nM.

Turning to `Cc1cc(-c2c(C(=O)NC3CC3)ncc3[nH]nc(C4CC4)c23)ccc1S(C)(=O)=O` [US12565497, Example 86], the IC50 is under 13 nM.

With `COCCNC(=O)c1ncc2[nH]nc(OC(F)F)c2c1-c1ccc(S(=O)(=O)C(F)F)c(C)c1` [US12565497, Example 109], the IC50 was under 13 nM.

On to `Cc1cc(-c2c(S(C)(=N)=O)ccc3[nH]nc(C4CC4)c23)ccc1S(C)(=O)=O` (configuration not stated) [US12565497, Example 112], for which 90 nM corresponded to half-maximal inhibition (IC50).

In turn, `Cc1cc(-c2c(S(C)(=O)=O)ccc3[nH]nc(OC(F)F)c23)ccc1S(=O)(=O)C(F)F` [US12565497, Example 117] returned an IC50 of under 13 nM.
